Experimental data published in US20240409560A1, “PYRIMIDINE TRICYCLIC DERIVATIVE AND PHARMACEUTICAL APPLICATION THEREOF” (CHIA TAI TIANQING PHARMACEUTICAL GROUP CO., LTD., priority 2021, published 2024).

Assays:
[1] = molecular target: T1, sGC (Homo sapiens, UniProt Q02153); assay: LNCap cell-based cGMP expression assay (HTRF); conditions: minimum effective concentration to stimulate cGMP production (three times greater than the basal value) in lnCap cells; DETA-NO added
T1 construct: endogenous in cells; host or cells: LNCaP cells (14th passage), no transfection described
T1 sequence (Q02153 1-619): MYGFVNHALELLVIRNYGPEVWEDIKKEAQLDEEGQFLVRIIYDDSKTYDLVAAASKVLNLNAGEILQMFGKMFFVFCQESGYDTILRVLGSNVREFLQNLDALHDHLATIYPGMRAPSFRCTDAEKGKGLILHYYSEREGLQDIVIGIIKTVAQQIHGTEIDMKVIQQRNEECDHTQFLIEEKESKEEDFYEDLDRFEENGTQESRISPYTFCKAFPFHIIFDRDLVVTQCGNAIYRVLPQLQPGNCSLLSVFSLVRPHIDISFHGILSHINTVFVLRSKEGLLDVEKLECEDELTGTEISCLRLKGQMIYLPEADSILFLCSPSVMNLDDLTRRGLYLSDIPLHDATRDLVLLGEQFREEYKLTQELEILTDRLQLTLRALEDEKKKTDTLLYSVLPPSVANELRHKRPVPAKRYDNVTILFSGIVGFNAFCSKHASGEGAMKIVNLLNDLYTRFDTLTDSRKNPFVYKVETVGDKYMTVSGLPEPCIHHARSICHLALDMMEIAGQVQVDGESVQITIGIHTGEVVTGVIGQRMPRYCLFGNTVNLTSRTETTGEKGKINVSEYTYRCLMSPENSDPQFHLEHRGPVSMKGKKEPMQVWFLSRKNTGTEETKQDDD
T1 sequence (Q02108 1-690 partner): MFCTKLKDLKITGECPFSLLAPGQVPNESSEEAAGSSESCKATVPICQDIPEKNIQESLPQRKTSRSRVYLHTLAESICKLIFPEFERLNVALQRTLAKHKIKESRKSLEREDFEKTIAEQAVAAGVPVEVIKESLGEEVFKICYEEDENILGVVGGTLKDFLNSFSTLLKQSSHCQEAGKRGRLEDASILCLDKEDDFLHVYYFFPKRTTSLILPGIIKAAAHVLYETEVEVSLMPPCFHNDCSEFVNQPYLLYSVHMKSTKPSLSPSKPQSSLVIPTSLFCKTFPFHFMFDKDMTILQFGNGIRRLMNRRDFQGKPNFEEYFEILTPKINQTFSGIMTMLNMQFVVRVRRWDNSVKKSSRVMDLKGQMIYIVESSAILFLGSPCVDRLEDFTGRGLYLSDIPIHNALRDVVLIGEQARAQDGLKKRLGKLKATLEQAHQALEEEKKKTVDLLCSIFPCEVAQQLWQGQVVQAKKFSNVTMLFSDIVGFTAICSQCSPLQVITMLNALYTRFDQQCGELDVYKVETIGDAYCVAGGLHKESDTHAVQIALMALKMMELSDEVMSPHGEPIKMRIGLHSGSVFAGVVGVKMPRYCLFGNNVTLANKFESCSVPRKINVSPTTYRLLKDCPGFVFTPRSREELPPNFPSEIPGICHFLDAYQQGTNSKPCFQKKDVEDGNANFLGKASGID
Method: I. InCap Cell-Based cGMP Expression Assay
• 10 g of BSA was dissolved in 100 mL of double distilled water (ddH2O) to give 10% BSA.
• 10 mg of DETA-NO was weighed out and dissolved in 12.2 mL of double distilled water (ddH2O) to give 5 mM DETA-NO, which was aliquoted and cryopreserved in a freezer at −20° C.
• a) To 1 mL of a lysis buffer was added 50 μL of cGMP-D2 (D2-labeled cyclic guanosine monophosphate), and the mixture was well mixed. • b) To 1 mL of a lysis buffer was added 50 μL of anti-cGMP cryptate (Eu^3+ cryptate-labeled anti-cyclic guanosine monophosphate antibody), and the mixture was well mixed.
• (1) The compounds were diluted to 5 mM with DMSO, 10 μL of each of the compounds was transferred to a shallow well plate for Echo. • (2) The compounds were serially diluted with Echo. Each of the compounds was diluted to obtain 10 concentration gradients, and 50 nL of each compound at each concentration gradient was added to a 384 microwell plate.
• (1) LNCap medium: RPMI1640+10% fetal bovine serum+1% […]. • (2) Phosphate buffered saline, pancreatin, and the medium used in the process of cell passaging were pre-heated in a water bath at 37° C. • (3) The cells (the 14th generation) were taken out of the 37° C. 5% CO2 incubator, and the old medium was pipetted off the culture flask. • (4) 5 mL of phosphate buffered saline was pipetted into the culture flask to rinse the cells, and then the liquid was discarded. • (5) 3 mL of pancreatin was pipetted into the culture flask. After the culture flask was shaken, the liquid was discarded, and the culture flask was placed in the incubator. • (6) After about 2 min, the culture flask was taken out. […] The cell suspension was transferred to a 50 mL centrifuge tube. • (7) 0.7 mL of the cell suspension was pipetted into a counter cup and the cells were counted on a ViCell XR. […]
• (1) cGMP-D2 was transferred to the 384 microwell plate at 5 μL/well using Bravo. […] The mixtures were centrifuged at 1500 rpm for 1 min. • (3) The plate was incubated at room temperature for 1 h. • (4) 665/615 was read using envision. […]

[2] = Tissue distribution study in rats, oral administration; format: in vivo, Sprague Dawley rats; conditions: male SD rats, po 1 mg/kg; samples at 2, 6, 12 h
Method: Objective: This study was intended to test the distribution ratio of the compounds in plasma, heart, cerebrospinal fluid, and brain tissue in the case of oral administration.
Sprague Dawley Rats (Male, 200-300 g, 7-9 Weeks Old, Shanghai SLAC)
In the project, 6 male SD rats were orally dosed at 1 mg/kg, 0.2 mg/mL. Samples of cerebrospinal fluid, brain, heart tissue, and plasma were collected at 2 h, 6 h, and 12 h after the dosing and then subjected to LC-MS/MS analysis, and data were recorded. Relevant pharmacokinetic parameters were calculated using the Phoenix WinNonlin 6.3 software based on the recorded data.

[3] = In vivo pharmacokinetic property study in male SD rats; conditions: Sprague-Dawley, rat, plasma
Method: Objective: This study was intended to determine the pharmacokinetic parameters of the compounds in male SD rats.
Sprague Dawley rats (Male, 200-300 g, 7-9 weeks old, Shanghai SLAC)
In the project, 4 male SD rats were used. One group of 2 SD rats were dosed by intravenous injection at 0.3 mg/kg, 0.15 mg/mL and another group of 2 SD rats were orally dosed at 1 mg/kg, 0.2 mg/mL. Plasma samples were collected at 0.083 h (the intravenous injection group only), 0.25 h, 0.5 h, 1 h, 2 h, 4 h, 6 h, 8 h, 12 h, and 24 h after the dosing and then subjected to LC-MS/MS analysis, and data were recorded. Relevant pharmacokinetic parameters were calculated using the Phoenix WinNonlin 6.3 software based on the recorded data.

| MEC of the stimulating activity for sGC [1] [nM] | AUC0-last, heart [2] | AUC0-last, plasma [2] | clearance ([3]; iv 0.3 mg/kg) [mL/min/kg] | half-life ([3]; iv 0.3 mg/kg) [min] | Vd ([3]; iv 0.3 mg/kg, read-out: Vdss) [L/kg] | bioavailability ([3]; po 1 mg/kg) [%] | half-life ([3]; po 1 mg/kg) [min] | SMILES |
| --- | --- | --- | --- | --- | --- | --- | --- | --- |
| 214 | 6970 h*nmol/L or h*nmol/kg | 1889 h*nmol/L or h*nmol/kg | 4.58 | 377 | 2.36 | 65 | 402 | CO[C@@]12C(=O)Nc3nc(-c4nn(CCC(F)(F)C(F)(F)F)c5ncc(F)cc45)nc(c31)NC(=O)C2(C)C [Compound 006] |
| 548 |  |  |  |  |  |  |  | CO[C@]12C(=O)Nc3nc(-c4nn(CCC(F)(F)C(F)(F)F)c5ncc(F)cc45)nc(c31)NC(=O)C2(C)C [Compound 007] |

| SMILES | MEC of the stimulating activity for sGC [1] [nM] | AUC0-last, heart [2] | AUC0-last, plasma [2] | clearance ([3]; iv 0.3 mg/kg) [mL/min/kg] | half-life ([3]; iv 0.3 mg/kg) [min] | Vd ([3]; iv 0.3 mg/kg, read-out: Vdss) [L/kg] | bioavailability ([3]; po 1 mg/kg) [%] | half-life ([3]; po 1 mg/kg) [min] |
| --- | --- | --- | --- | --- | --- | --- | --- | --- |
| CC1(C)C(=O)Nc2nc(-c3nn(Cc4ccccc4F)c4ncc(F)cc34)nc3c2C1(O)C(=O)N3 (stereo not shown) [Compound 016] | 19.3 |  |  |  |  |  |  |  |
